According to ChEMBL document CHEMBL1268894, “Synthesis and biological evaluation of novel hygromycin A antibacterial agents” (Bioorg Med Chem Lett, 2010):
≈ marks a conversion by molar mass, not a printed value.

What was measured:
[1] = Permeability across apical to basolateral side in human Caco-2 cells; format: ADME, cell-based; details: read-out: permeability
[2] = Permeability across basolateral to apical side in human Caco-2 cells; format: ADME, cell-based; details: read-out: permeability
[3] = system: Staphylococcus aureus; experiment: Antimicrobial activity against Staphylococcus aureus 1095; format: functional
[4] = system: Staphylococcus aureus; experiment: Antimicrobial activity against Staphylococcus aureus 1146; format: functional
[5] = system: Streptococcus pneumoniae; experiment: Antimicrobial activity against Streptococcus pneumoniae 1046; format: functional
[6] = system: Streptococcus pneumoniae; experiment: Antimicrobial activity against Streptococcus pneumoniae 1095; format: functional
[7] = system: Streptococcus pyogenes; experiment: Antimicrobial activity against Streptococcus pyogenes 2035; format: functional
[8] = system: Streptococcus pyogenes; experiment: Antimicrobial activity against Streptococcus pyogenes 1079; format: functional
[9] = Oral bioavailability in rat; format: ADME, organism-based; details: in vivo

C/C(=C\c1cc(F)c(OCCCF)cc1F)C(=O)N[C@@H]1[C@H](O)[C@@H](O)[C@H]2OCO[C@H]2[C@@H]1OCc1ccccc1C#N
Papp A→B [1]: 2.5 ×10⁻⁶ cm/s
Papp B→A [2]: 22 ×10⁻⁶ cm/s
MIC [3]: 1 µg/mL (≈ 1.78 µM)
MIC [4]: 1 µg/mL (≈ 1.78 µM)
MIC [5]: < 0.0625 µg/mL
MIC [6]: < 0.0625 µg/mL
MIC [7]: 0.25 µg/mL (≈ 0.444 µM)
MIC [8]: < 0.0625 µg/mL

CCO[C@@H]1[C@@H](O)[C@H]2OCO[C@H]2[C@H](O)[C@@H]1NC(=O)/C(C)=C/c1cc(F)c(OCCCF)cc1F
MIC [3]: 8 µg/mL (≈ 16.8 µM)
MIC [4]: 8 µg/mL (≈ 16.8 µM)
MIC [5]: 2 µg/mL (≈ 4.21 µM)
MIC [6]: 8 µg/mL (≈ 16.8 µM)
MIC [7]: 1 µg/mL (≈ 2.1 µM)
MIC [8]: 2 µg/mL (≈ 4.21 µM)

CCCO[C@@H]1[C@H](NC(=O)/C(C)=C/c2cc(F)c(OCCCF)cc2F)[C@H](O)[C@@H](O)[C@H]2OCO[C@H]21
MIC [3]: 4 µg/mL (≈ 8.17 µM)
MIC [4]: 8 µg/mL (≈ 16.3 µM)
MIC [5]: 1 µg/mL (≈ 2.04 µM)
MIC [6]: 2 µg/mL (≈ 4.09 µM)
MIC [7]: 4 µg/mL (≈ 8.17 µM)
MIC [8]: 1 µg/mL (≈ 2.04 µM)

CCCO[C@@H]1[C@@H](O)[C@H]2OCO[C@H]2[C@H](O)[C@@H]1NC(=O)/C(C)=C/c1cc(F)c(OCCCF)cc1F
MIC [3]: > 64 µg/mL
MIC [4]: > 64 µg/mL
MIC [5]: 64 µg/mL (≈ 131 µM)
MIC [6]: 64 µg/mL (≈ 131 µM)
MIC [7]: 64 µg/mL (≈ 131 µM)
MIC [8]: 32 µg/mL (≈ 65.4 µM)

C/C(=C\c1cc(F)c(OCCCF)cc1F)C(=O)N[C@@H]1[C@H](O)[C@@H](O)[C@H]2OCO[C@H]2[C@@H]1OCCCF
MIC [3]: 2 µg/mL (≈ 3.94 µM)
MIC [4]: 1 µg/mL (≈ 1.97 µM)
MIC [5]: 0.25 µg/mL (≈ 0.493 µM)
MIC [6]: 0.25 µg/mL (≈ 0.493 µM)
MIC [7]: 0.5 µg/mL (≈ 0.985 µM)
MIC [8]: 0.125 µg/mL (≈ 0.246 µM)

C/C(=C\c1cc(F)c(OCCCF)cc1F)C(=O)N[C@H]1[C@@H](O)[C@@H]2OCO[C@@H]2[C@H](O)[C@H]1OCCCF
MIC [3]: 16 µg/mL (≈ 31.5 µM)
MIC [4]: 8 µg/mL (≈ 15.8 µM)
MIC [5]: 8 µg/mL (≈ 15.8 µM)
MIC [6]: 8 µg/mL (≈ 15.8 µM)
MIC [7]: 8 µg/mL (≈ 15.8 µM)
MIC [8]: 2 µg/mL (≈ 3.94 µM)

C/C(=C\c1cc(F)c(OCCCF)cc1F)C(=O)N[C@@H]1[C@H](O)[C@@H](O)[C@H]2OCO[C@H]2[C@@H]1OCC1CC1
MIC [3]: 4 µg/mL (≈ 7.98 µM)
MIC [4]: 4 µg/mL (≈ 7.98 µM)
MIC [5]: 0.5 µg/mL (≈ 0.997 µM)
MIC [6]: 1 µg/mL (≈ 1.99 µM)
MIC [7]: 1 µg/mL (≈ 1.99 µM)
MIC [8]: 0.5 µg/mL (≈ 0.997 µM)

C/C(=C\c1cc(F)c(OCCCF)cc1F)C(=O)N[C@H]1[C@@H](O)[C@@H]2OCO[C@@H]2[C@H](O)[C@H]1OCC1CC1
MIC [3]: > 64 µg/mL
MIC [4]: > 64 µg/mL
MIC [5]: 64 µg/mL (≈ 128 µM)
MIC [6]: > 64 µg/mL
MIC [7]: > 64 µg/mL
MIC [8]: 32 µg/mL (≈ 63.8 µM)

C/C(=C\c1cc(F)c(OCCCF)cc1F)C(=O)N[C@@H]1[C@H](O)[C@@H](O)[C@H]2OCO[C@H]2[C@@H]1OCc1ccccc1
MIC [3]: 16 µg/mL (≈ 29.8 µM)
MIC [4]: 16 µg/mL (≈ 29.8 µM)
MIC [5]: 4 µg/mL (≈ 7.44 µM)
MIC [6]: 8 µg/mL (≈ 14.9 µM)
MIC [7]: 16 µg/mL (≈ 29.8 µM)
MIC [8]: 2 µg/mL (≈ 3.72 µM)

C/C(=C\c1cc(F)c(OCCCF)cc1F)C(=O)N[C@H]1[C@@H](O)[C@@H]2OCO[C@@H]2[C@H](O)[C@H]1OCc1ccccc1
Papp A→B [1]: 10 ×10⁻⁶ cm/s
Papp B→A [2]: 14 ×10⁻⁶ cm/s
MIC [3]: > 64 µg/mL
MIC [4]: 64 µg/mL (≈ 119 µM)
MIC [5]: 32 µg/mL (≈ 59.5 µM)
MIC [6]: 32 µg/mL (≈ 59.5 µM)
MIC [7]: 64 µg/mL (≈ 119 µM)
MIC [8]: 32 µg/mL (≈ 59.5 µM)

C/C(=C\c1cc(F)c(OCCCF)cc1F)C(=O)N[C@@H]1[C@H](O)[C@@H](O)[C@H]2OCO[C@H]2[C@@H]1OCC1CCOC1 (stereo partly drawn)
MIC [3]: 4 µg/mL (≈ 7.53 µM)
MIC [4]: 2 µg/mL (≈ 3.76 µM)
MIC [5]: 0.5 µg/mL (≈ 0.941 µM)
MIC [6]: 1 µg/mL (≈ 1.88 µM)
MIC [7]: 1 µg/mL (≈ 1.88 µM)
MIC [8]: 0.25 µg/mL (≈ 0.47 µM)

COCCCO[C@@H]1[C@H](NC(=O)/C(C)=C/c2cc(F)c(OCCCF)cc2F)[C@H](O)[C@@H](O)[C@H]2OCO[C@H]21
bioavailability [9]: 90%
MIC [3]: 16 µg/mL (≈ 30.8 µM)
MIC [4]: 16 µg/mL (≈ 30.8 µM)
MIC [5]: 4 µg/mL (≈ 7.7 µM)
MIC [6]: 4 µg/mL (≈ 7.7 µM)
MIC [7]: 2 µg/mL (≈ 3.85 µM)
MIC [8]: 2 µg/mL (≈ 3.85 µM)

C/C(=C\c1cc(F)c(OCCCF)cc1F)C(=O)N[C@@H]1[C@H](O)[C@@H](O)[C@H]2OCO[C@H]2[C@@H]1OCC#N
MIC [3]: 2 µg/mL (≈ 4.11 µM)
MIC [4]: 1 µg/mL (≈ 2.06 µM)
MIC [5]: 0.5 µg/mL (≈ 1.03 µM)
MIC [6]: 1 µg/mL (≈ 2.06 µM)
MIC [7]: 0.5 µg/mL (≈ 1.03 µM)
MIC [8]: 0.25 µg/mL (≈ 0.514 µM)

C/C(=C\c1cc(F)c(OCCCF)cc1F)C(=O)N[C@@H]1[C@H](O)[C@@H](O)[C@H]2OCO[C@H]2[C@@H]1O
bioavailability [9]: 20%
Papp A→B [1]: 0.9 ×10⁻⁶ cm/s
Papp B→A [2]: 5.9 ×10⁻⁶ cm/s
MIC [3]: 4 µg/mL (≈ 8.94 µM)
MIC [4]: 4 µg/mL (≈ 8.94 µM)
MIC [5]: 0.5 µg/mL (≈ 1.12 µM)
MIC [6]: 0.4 µg/mL (≈ 0.894 µM)
MIC [7]: 2 µg/mL (≈ 4.47 µM)
MIC [8]: < 0.2 µg/mL

CO[C@@H]1[C@@H](O)[C@@H](NC(=O)/C(C)=C/c2cc(F)c(OCCCF)cc2F)[C@@H](O)[C@@H]2OCO[C@H]12
MIC [3]: > 100 µg/mL
MIC [4]: 100 µg/mL (≈ 217 µM)
MIC [5]: 25 µg/mL (≈ 54.2 µM)
MIC [6]: 25 µg/mL (≈ 54.2 µM)
MIC [7]: 100 µg/mL (≈ 217 µM)
MIC [8]: 50 µg/mL (≈ 108 µM)

C/C(=C\c1cc(F)c(OCCCF)cc1F)C(=O)N[C@H]1[C@@H](O)[C@@H]2OCO[C@@H]2C[C@H]1O
MIC [3]: 64 µg/mL (≈ 148 µM)
MIC [4]: 32 µg/mL (≈ 74.2 µM)
MIC [5]: 4 µg/mL (≈ 9.27 µM)
MIC [6]: 8 µg/mL (≈ 18.5 µM)
MIC [7]: 16 µg/mL (≈ 37.1 µM)
MIC [8]: 8 µg/mL (≈ 18.5 µM)

CO[C@@H]1[C@H](NC(=O)/C(C)=C/c2cc(F)c(OCCCF)cc2F)[C@H](O)[C@@H](O)[C@H]2OCO[C@H]21
MIC [3]: 6.25 µg/mL (≈ 13.5 µM)
MIC [4]: 3.13 µg/mL (≈ 6.78 µM)
MIC [5]: 0.78 µg/mL (≈ 1.69 µM)
MIC [6]: 1.56 µg/mL (≈ 3.38 µM)
MIC [7]: 1.56 µg/mL (≈ 3.38 µM)
MIC [8]: 1.56 µg/mL (≈ 3.38 µM)

CCO[C@@H]1[C@H](NC(=O)/C(C)=C/c2cc(F)c(OCCCF)cc2F)[C@H](O)[C@@H](O)[C@H]2OCO[C@H]21
MIC [3]: 8 µg/mL (≈ 16.8 µM)
MIC [4]: 8 µg/mL (≈ 16.8 µM)
MIC [5]: 1 µg/mL (≈ 2.1 µM)
MIC [6]: 4 µg/mL (≈ 8.41 µM)
MIC [7]: 4 µg/mL (≈ 8.41 µM)
MIC [8]: 1 µg/mL (≈ 2.1 µM)

C/C(=C\c1cc(F)c(OCCCF)cc1F)C(=O)N[C@H]1C[C@@H]2OCO[C@@H]2[C@H](O)[C@H]1O
MIC [3]: 16 µg/mL (≈ 37.1 µM)
MIC [4]: 8 µg/mL (≈ 18.5 µM)
MIC [6]: 8 µg/mL (≈ 18.5 µM)
MIC [7]: 4 µg/mL (≈ 9.27 µM)
MIC [8]: 8 µg/mL (≈ 18.5 µM)

C=CCOc1ccc(/C=C(\C)C(=O)N[C@@H]2[C@H](O)[C@@H](O)[C@H]3OCO[C@H]3[C@@H]2O)cc1O
MIC [3]: 50 µg/mL (≈ 123 µM)
MIC [4]: 50 µg/mL (≈ 123 µM)
MIC [5]: 1.56 µg/mL (≈ 3.83 µM)
MIC [6]: 1.56 µg/mL (≈ 3.83 µM)
MIC [7]: 1.56 µg/mL (≈ 3.83 µM)
MIC [8]: 0.8 µg/mL (≈ 1.96 µM)

CC(=O)[C@H]1O[C@@H](Oc2ccc(/C=C(\C)C(=O)N[C@@H]3[C@H](O)[C@@H](O)[C@H]4OCO[C@H]4[C@@H]3O)cc2O)[C@@H](O)[C@@H]1O [HYGROMYCIN A]
MIC [3]: 50 µg/mL (≈ 97.8 µM)
MIC [4]: 25 µg/mL (≈ 48.9 µM)
MIC [5]: 12.5 µg/mL (≈ 24.4 µM)
MIC [6]: 12.5 µg/mL (≈ 24.4 µM)
MIC [7]: 6.25 µg/mL (≈ 12.2 µM)
MIC [8]: 6.25 µg/mL (≈ 12.2 µM)
